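How tested: cells in 96-well plates exposed to compound for 48 hours at five concentrations. TGI: concentration producing complete growth inhibition.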
Key:
Test in all cases: inhibition of tumour cell growth, NCI panel, 48 h
[1] = system: HCT-116 colon
[2] = system: M19-MEL melanoma
[3] = system: SK-MEL-5 melanoma
[4] = system: SNB-19 CNS
[5] = system: LXFL 529 NSCLC
[6] = system: SW-620 colon
[7] = system: NCI-H460 lung
[8] = system: MALME-3M melanoma
[9] = system: HCT-15 colon
[10] = system: KM12 colon
[11] = system: MOLT-4 leukemia
[12] = system: HT29 colon
[13] = system: NCI-H226 lung
[14] = system: UO-31 renal
[15] = system: NCI-H23 lung
[16] = system: OVCAR-3 ovarian
[17] = system: SNB-78 CNS
[18] = system: SK-OV-3 ovarian
[19] = system: EKVX NSCLC
[20] = system: HCC-2998 colon
[21] = system: A549 NSCLC
[22] = system: SF-295 CNS
[23] = system: U251 CNS
[24] = system: DMS 114 small cell lung
[25] = system: DMS 273 small cell lung
[26] = system: SR leukemia
[27] = system: DLD-1 colon
[28] = system: LOX IMVI melanoma
[29] = system: SNB-75 CNS
[30] = system: ACHN renal
[31] = system: SN12C renal
[32] = system: A498 renal
[33] = system: COLO 205 colon
[34] = system: 786-0 renal
[35] = system: NCI-H522 lung
[36] = system: HOP-62 NSCLC
[37] = system: UACC-62 melanoma
[38] = system: OVCAR-8 ovarian
[39] = system: RPMI-8226 leukemia
[40] = system: OVCAR-4 ovarian
[41] = system: UACC-257 melanoma
[42] = system: CAKI-1 renal
[43] = system: SF-539 CNS
[44] = system: KM20L2 colon
[45] = system: M14 melanoma
[46] = system: TK-10 renal
[47] = system: RXF 393 renal
[48] = system: SK-MEL-28 melanoma
[49] = system: HL-60(TB) leukemia
[50] = system: IGROV1 ovarian
[51] = system: OVCAR-5 ovarian
[52] = system: K-562 leukemia
[53] = system: HOP-92 NSCLC
[54] = system: CCRF-CEM leukemia
[55] = system: SK-MEL-2 melanoma
[56] = system: XF 498 CNS

COc1ccc(C(=O)C2CCC(C(=O)O)C2)cc1 (configuration not stated)
TGI [1]: > 100 µM
TGI [2]: > 100 µM
TGI [3]: > 100 µM
TGI [4]: > 100 µM
TGI [5]: > 100 µM
TGI [6]: > 100 µM
TGI [7]: > 100 µM
TGI [8]: > 100 µM
TGI [9]: > 100 µM
TGI [10]: > 100 µM
TGI [11]: > 100 µM
TGI [12]: > 100 µM
TGI [13]: > 100 µM
TGI [14]: > 100 µM
TGI [15]: > 100 µM
TGI [16]: > 100 µM
TGI [17]: > 100 µM
TGI [18]: > 100 µM
TGI [19]: > 100 µM
TGI [20]: > 100 µM
TGI [21]: > 100 µM
TGI [22]: > 100 µM
TGI [23]: > 100 µM
TGI [24]: > 100 µM
TGI [25]: > 100 µM
TGI [26]: > 100 µM
TGI [27]: > 100 µM
TGI [28]: > 100 µM
TGI [29]: > 100 µM
TGI [30]: > 100 µM
TGI [31]: > 100 µM
TGI [32]: > 100 µM
TGI [33]: > 100 µM
TGI [34]: > 100 µM
TGI [35]: > 100 µM
TGI [36]: > 100 µM
TGI [37]: > 100 µM
TGI [38]: > 100 µM
TGI [39]: > 100 µM
TGI [40]: > 100 µM
TGI [41]: > 100 µM
TGI [42]: > 100 µM
TGI [43]: > 100 µM
TGI [44]: > 100 µM
TGI [45]: > 100 µM
TGI [46]: > 100 µM
TGI [47]: > 100 µM
TGI [48]: > 100 µM
TGI [49]: > 100 µM
TGI [50]: > 100 µM
TGI [51]: > 100 µM
TGI [52]: > 100 µM
TGI [53]: > 100 µM
TGI [54]: > 100 µM
TGI [55]: > 100 µM

CC#Cc1c(O)c2c(c(O)c1C#CC)C(=O)c1ccccc1C2=O
TGI [56]: > 100 µM
TGI [2]: > 100 µM
TGI [3]: > 100 µM
TGI [5]: 42.7 µM
TGI [6]: > 100 µM
TGI [8]: > 100 µM
TGI [9]: > 100 µM
TGI [11]: > 100 µM
TGI [18]: > 100 µM
TGI [19]: > 100 µM
TGI [20]: > 100 µM
TGI [21]: > 100 µM
TGI [23]: > 100 µM
TGI [24]: > 100 µM
TGI [25]: > 100 µM
TGI [26]: > 100 µM
TGI [27]: > 100 µM
TGI [28]: > 100 µM
TGI [30]: > 100 µM
TGI [31]: > 100 µM
TGI [33]: > 100 µM
TGI [34]: > 100 µM
TGI [36]: > 100 µM
TGI [37]: > 100 µM
TGI [38]: > 100 µM
TGI [39]: > 100 µM
TGI [40]: > 100 µM
TGI [42]: > 100 µM
TGI [44]: > 100 µM
TGI [45]: > 100 µM
TGI [46]: > 100 µM
TGI [49]: > 100 µM
TGI [50]: > 100 µM
TGI [51]: > 100 µM
TGI [52]: > 100 µM
TGI [54]: > 100 µM
TGI [55]: > 100 µM

From PubChem BioAssay (NCI)
